Test results published in patent US5300629A, “Bactericidal and/or bacteriostatic peptides isolated from hemolymph of honeybees” (Plant Genetic Systems, N.V., priority 1987, dated 1994).
Values after ≈ are worked out from the molar mass of the structure shown. Where a SMILES comes first, the peptide text is derived from it.

Test system: Corynebacterium insidiosum NCPPB 1109
Experiment: Minimal inhibitory concentration in liquid culture
Assay type: cell-based
Details: 200 μl rich medium, 10^4 log-phase bacteria
Protocol: In addition the exact concentration was determined precisely by amino-acid analysis and an equal sample of natural Bee 6b was prepared, allowing to compare the bactericidal activity of both natural and synthetic apidaecins by means of growth inhibition assays in liquid cultures (see mat & Meth.). The minimal inhibitory concentrations (μg/ml) were determined in liquid culture : 200 μl of a rich medium (trypticase soy broth or nutrient broth) was inoculated with 10^4 log-phase bacteria. Peptide concentrations ranged between 0 and 200 μg/ml. The values express μg/ml; when no inhibition was noticed the maximal values are given (+200 μg/ml or +50 μg/ml). All peptides were chemically synthesized, except for bee 6b which is purified from bee lymph.

CC[C@H](C)[C@H](NC(=O)[C@H](Cc1ccc(O)cc1)NC(=O)[C@@H](NC(=O)[C@@H]1CCCN1C(=O)[C@H](CCCNC(=N)N)NC(=O)[C@H](CC(N)=O)NC(=O)[C@H](CC(N)=O)NC(=O)CN)C(C)C)C(=O)N[C@@H](CCC(N)=O)C(=O)N1CCC[C@H]1C(=O)N[C@@H](CCCNC(=N)N)C(=O)N1CCC[C@H]1C(=O)N1CCC[C@H]1C(=O)N[C@@H](Cc1c[nH]cn1)C(=O)N1CCC[C@H]1C(=O)N[C@@H](CCCNC(=N)N)C(=O)N[C@@H](CC(C)C)C(=O)O [Apid PT-1] (H-GNNRPVYIQPRPPHPRL-OH)
minimal inhibitory concentration: 50 µg/mL (≈ 24.9 µM)
